# Target: GDP-loaded KRAS G12D (Homo sapiens, UniProt P01116, G12D)
# Assay: KRAS G12D Probe Displacement Assay
# Type: binding
# Details: KRAS G12D 0.5 nM, biotinylated probe 2 4 nM; Table 6 letters; read-out: KRAS G12D Probe Displacement Assay IC50 (class)
# Sequence of GDP-loaded KRAS G12D (P01116 1-188 isoform P01116-2 G12D): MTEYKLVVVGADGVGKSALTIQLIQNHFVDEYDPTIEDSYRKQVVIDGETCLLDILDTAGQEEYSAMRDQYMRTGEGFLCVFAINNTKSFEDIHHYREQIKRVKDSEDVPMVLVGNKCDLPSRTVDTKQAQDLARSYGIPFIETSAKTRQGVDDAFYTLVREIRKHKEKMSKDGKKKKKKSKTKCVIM
row,Compound,IC50 [nM]
1,"Cc1cc(N)c(C#N)c(-c2c(Cl)cc3c(N4CC5CCC(C4)N5)nc(OC[C@@]45CCCN4C[C@H](F)C5)nc3c2F)c1I [Example E118, 2-(4-(3,8-diazabicyclo[3.2.1]octan-3-yl)-6-chloro-8-fluoro-2-(((2R,7aS)-2-fluorotetrahydro-1H-pyrrolizin-7a(5H)-yl)methoxy)quinazolin-7-yl)-6-amino-3-iodo-4-methylbenzonitrile]",< 50
2,"Cc1cc(N)nc(-c2c(C#N)cc3c(N4CC5CCC(C4)N5)nc(OC[C@@]45CCCN4C[C@H](F)C5)nc3c2F)c1C(F)(F)F [Example E119, 7-(6-amino-4-methyl-3-(trifluoromethyl)pyridin-2-yl)-4-(3,8-diazabicyclo [3.2.1]octan-3-yl)-8-fluoro-2-(((2R,7aS)-2-fluorotetrahydro-1H-pyrrolizin-7a(5H)-yl)methoxy) quinazoline-6-carbonitrile]",< 50
3,"Cc1cc2[nH]ncc2c(-c2c(Cl)cc3c(N4CC5CCC(C4)N5)nc(OC[C@@]45CCCN4C[C@H](F)C5)nc3c2F)c1Cl [Example E120, 4-(3,8-diazabicyclo[3.2.1]octan-3-yl)-6-chloro-7-(5-chloro-6-methyl-1H-indazol-4-yl)-8-fluoro-2-(((2R,7aS)-2-fluorotetrahydro-1H-pyrrolizin-7a(5H)-yl)methoxy)quinazoline]",< 50
4,"CN1CCCC1(CC#N)COc1nc(N2CC3CCC(C2)N3)c2cc(C(F)(F)F)c(-c3ccc(F)c4sc(N)nc34)c(F)c2n1 (stereo not shown) [Example E121, 2-(2-(((7-(2-amino-7-fluorobenzo[d]thiazol-4-yl)-4-(3,8-diazabicyclo[3.2.1]octan-3-yl)-8-fluoro-6-(trifluoromethyl)quinazolin-2-yl)oxy)methyl)-1-methylpyrrolidin-2-yl)acetonitrile]",< 50
5,"CN1C[C@H](F)C[C@]1(C)COc1nc(N2C3CNCC2COC3)c2cc(C(F)(F)F)c(-c3ccc(F)c4sc(N)nc34)c(F)c2n1 [Example E122, 4-(4-(3-oxa-7,9-diazabicyclo[3.3.1]nonan-9-yl)-8-fluoro-2-(((2R,4R)-4-fluoro-1,2-dimethylpyrrolidin-2-yl)methoxy)-6-(trifluoromethyl)quinazolin-7-yl)-7-fluorobenzo[d]thiazol-2-amine]",< 50
6,"Oc1cc(Cl)c(C2CC2)c(-c2c(Cl)cc3c(N4CC5CCC(C4)N5)nc(OC[C@@]45CCCN4C[C@H](F)C5)nc3c2F)c1 [Example E123, 3-(4-(3,8-diazabicyclo[3.2.1]octan-3-yl)-6-chloro-8-fluoro-2-(((2R,7aS)-2-fluorotetrahydro-1H-pyrrolizin-7a(5H)-yl)methoxy)quinazolin-7-yl)-5-chloro-4-cyclopropylphenol]",< 50
7,"N#CCCNC1C[C@H]2CC[C@@H]1N2c1nc(OC[C@@]23CCCN2C[C@H](F)C3)nc2c(F)c(-c3ccc(F)c4sc(N)nc34)c(C(F)(F)F)cc12 (stereo partly drawn) [Example E124, 3-(((1S,4R)-7-(7-(2-amino-7-fluorobenzo[d]thiazol-4-yl)-8-fluoro-2-(((2R,7aS)-2-fluorotetrahydro-1H-pyrrolizin-7a(5H)-yl)methoxy)-6-(trifluoromethyl)quinazolin-4-yl)-7-azabicyclo[2.2.1]heptan-2-yl)amino)propanenitrile]",< 50
8,"C=Cc1cc(N)nc(-c2c(Cl)cc3c(N4CC5CCC(C4)N5)nc(OC[C@@]45CCCN4C[C@H](F)C5)nc3c2F)c1C(F)(F)F [Example E125, 6-(4-(3,8-diazabicyclo[3.2.1]octan-3-yl)-6-chloro-8-fluoro-2-(((2R,7aS)-2-fluorotetrahydro-1H-pyrrolizin-7a(5H)-yl)methoxy)quinazolin-7-yl)-5-(trifluoromethyl)-4-vinylpyridin-2-amine]",< 50
9,"Oc1cc(F)c(C(F)(F)F)c(-c2c(Cl)cc3c(N4CC5CCC(C4)N5)nc(OC[C@@]45CCCN4C[C@H](F)C5)nc3c2F)c1 [Example E126, 3-(4-(3,8-diazabicyclo[3.2.1]octan-3-yl)-6-chloro-8-fluoro-2-(((2R,7aS)-2-fluorotetrahydro-1H-pyrrolizin-7a(5H)-yl)methoxy)quinazolin-7-yl)-5-fluoro-4-(trifluoromethyl)phenol]",< 50
10,"Nc1nc2c(-c3c(C(F)(F)F)cc4c(N5C6CNCC5C6)nc(OC[C@@]56CCCN5C[C@H](F)C6)nc4c3F)ccc(F)c2s1 [Example E127, 4-(4-(3,6-diazabicyclo[3.1.1]heptan-6-yl)-8-fluoro-2-(((2R,7aS)-2-fluorotetrahydro-1H-pyrrolizin-7a(5H)-yl)methoxy)-6-(trifluoromethyl)quinazolin-7-yl)-7-fluoro benzo[d]thiazol-2-amine]",< 50
11,"Nc1nc2c(-c3cc4nc(OC[C@@]56CCCN5C[C@H](F)C6)nc(N5CC6CCC(C5)N6)c4cc3C(F)(F)F)ccc(F)c2s1 [Example E128, 4-(4-(3,8-diazabicyclo[3.2.1]octan-3-yl)-2-(((2R,7aS)-2-fluorotetra hydro-1H-pyrrolizin-7a(5H)-yl)methoxy)-6-(trifluoromethyl)quinazolin-7-yl)-7-fluorobenzo[d] thiazol-2-amine]",< 50

# The next lines start with the values.
row,IC50 [nM],Compound
1,< 50,"C#Cc1cc(N)nc(-c2c(Cl)cc3c(N4C5CCC4CNC5)nc(OC[C@@]45CCCN4C[C@H](F)C5)nc3c2F)c1C(F)(F)F [Example E113, 6-(4-(3,8-diazabicyclo[3.2.1]octan-8-yl)-6-chloro-8-fluoro-2-(((2R,7aS)-2-fluorotetrahydro-1H-pyrrolizin-7a(5H)-yl)methoxy)quinazolin-7-yl)-4-ethynyl-5-(trifluoromethyl)pyridin-2-amine]"
2,< 50,"Cc1cc(O)cc(-c2c(Cl)cc3c(N4CC5CCC(C4)N5)nc(OC[C@@]45CCCN4C[C@H](F)C5)nc3c2F)c1C(F)(F)F [Example E114, 3-(4-(3,8-diazabicyclo[3.2.1]octan-3-yl)-6-chloro-8-fluoro-2-(((2R,7aS)-2-fluorotetrahydro-1H-pyrrolizin-7a(5H)-yl)methoxy)quinazolin-7-yl)-5-methyl-4-(trifluoromethyl)phenol]"
3,< 50,"C[C@@H](CN1C2CCC1CC(C#N)C2)Oc1nc(N2CC3CCC(C2)N3)c2cc(Cl)c(-c3ccc(F)c4sc(N)c(C#N)c34)c(F)c2n1 (stereo partly drawn) [Example E115, 8-((2S)-2-((7-(2-amino-3-cyano-7-fluorobenzo[b]thiophen-4-yl)-4-(3,8-diazabicyclo[3.2.1]octan-3-yl)-6-chloro-8-fluoroquinazolin-2-yl)oxy)propyl)-8-azabicyclo [3.2.1]octane-3-carbonitrile]"
4,< 50,"C[C@@H](CN1CCC(F)CC1)Oc1nc(N2CC3CCC(C2)N3)c2cc(Cl)c(-c3ccc(F)c4sc(N)c(C#N)c34)c(F)c2n1 [Example E116, 4-(4-(3,8-diazabicyclo[3.2.1]octan-3-yl)-6-chloro-8-fluoro-2-(((S)-1-(4-fluoropiperidin-1-yl)propan-2-yl)oxy)quinazolin-7-yl)-2-amino-7-fluorobenzo[b]thiophene-3-carbonitrile]"
5,< 50,"Cc1cc(N)nc(-c2cc3nc(OC[C@@]45CCCN4C[C@H](F)C5)nc(N4CC5CCC(C4)N5)c3cc2Cl)c1C(F)(F)F [Example E117, 6-(4-(3,8-diazabicyclo[3.2.1]octan-3-yl)-6-chloro-2-(((2R,7aS)-2-fluorotetrahydro-1H-pyrrolizin-7a(5H)-yl)methoxy)quinazolin-7-yl)-4-methyl-5-(trifluoromethyl)pyridin-2-amine]"

# Source: US20240140957A1, “BRIDGED COMPOUNDS AS KRAS G12D INHIBITOR AND DEGRADER AND THE USE THEREOF” (BeiGene Switzerland GmbH, priority 2021, published 2024)
